Source: paper PMC9797896 (Medicinal Chemistry Research, 2022)

Assays:
Vero E6 cells = conditions: African green monkey
in vitro = conditions: African green monkey

Which CC50 (Vero E6 cells) does the source give for `OC[C@H]1O[C@@H](n2cnc3c(N[C@@H]4CCOC4)ncnc32)[C@H](O)[C@@H]1O` [Tecadenoson, tecadenoson] here?
The CC50 was > 100 µM.

Which CC50 (in vitro) does the source give for `CCC(CC)COC(=O)[C@H](C)N[P@](=O)(OC[C@H]1O[C@@](C#N)(c2ccc3c(N)ncnn23)[C@H](O)[C@@H]1O)Oc1ccccc1` [Remdesivir, remdesivir] here?
The CC50 was > 100 µM.

With `CC(C)Nc1nc2cc(Cl)c(Cl)cc2n1[C@H]1O[C@@H](CO)[C@H](O)[C@@H]1O` [Maribavir, maribavir] as the molecule, how does the CC50 (Vero E6 cells) read?
Its CC50 is > 100 µM.

Which CC50 (Vero E6 cells) does the source give for `CC(C)=CCNc1ncnc2c1ncn2[C@@H]1O[C@H](CO)[C@@H](O)[C@H]1O` [Riboprine, N^6-(2-Isopentenyl)adenosine] here?
The CC50 was > 100 µM.

Which CC50 (Vero E6 cells) does the source give for `Nc1ncnc2c1ncn2[C@@H]1O[C@H](CO)[C@@H](O)[C@@H]1O` [Vidarabine, Arabinosyladenine] here?
Its CC50 is > 100 µM.

For `CC(C)C(=O)OC[C@H]1O[C@@H](n2ccc(NO)nc2=O)[C@H](O)[C@@H]1O` [Molnupiravir, molnupiravir], which CC50 (Vero E6 cells) is on record?
Its CC50 is > 100 µM.

For `COc1nc(N)nc2c1ncn2[C@@H]1O[C@H](CO)[C@@H](O)[C@@H]1O` [Nelarabine, nelarabine], which CC50 (Vero E6 cells) is on record?
Its CC50 is > 100 µM.

Which CC50 (Vero E6 cells) does the source give for `O=c1[nH]cnc2c([C@@H]3N[C@H](CO)[C@@H](O)[C@H]3O)c[nH]c12` [Forodesine, forodesine] here?
The CC50 was > 100 µM.
